According to publication PMC7356587, “Efficacy, Stability, and Safety Evaluation of New Polyphenolic Xanthones Towards Identification of Bioactive Compounds to Fight Skin Photoaging” (Molecules, 2020):
Marks after values point to notes of the source that are not given here.

Assays:
[1] = Metal-chelating effect by UV/Vis, CuCl2; assay type: physicochemical; conditions: methanolic solution
Description: (§1) The ultraviolet/visible (UV/Vis) spectra were recorded in methanol using a path length of 1 cm, at room temperature on a Varian CARY100 spectrophotometer (Agilent Technologies, Santa Clara, California, United States) from a range of 200 nm to 500 nm (software CaryWin UV, v. 3.0). The metal-chelating effect was evaluated by described procedures with stock solutions (1.0 × 10^−4 M) in methanol. Iron (III) and copper (II) solutions were prepared in a concentration of 1.0 × 10^−3 M from FeCl3 and CuCl2 in deionized water.

DPPH reduction assay = conditions: for IC50: DPPH reduction, 60 min incubation
Description: The reduction of the stable DPPH free radical was measured by monitoring the change in absorbance at 517 nm. These experiments were made in a 96-well microplate. […] In each experiment, the compounds were tested in the concentration range 0.7812 μM to 50 μM, in triplicate. For each sample concentration, a blank with ethanol 70%, instead of DPPH was made. Ascorbic acid was used as a positive control and tested in the same conditions. Blanks containing only ethanol 70% and control containing DPPH in ethanol 70% (190 μM) were used. The absorbance at 517 nm was measured in a microplate reader BioTek^TM Synergy HT (BioTeck Instruments, Vermont, USA) after 60 min of incubation in the dark with a temperature-controlled holder at 25 °C. The microplate was shaken before each reading.
The scavenging percentage of DPPH was calculated using the following equation:(1) %scavenging of DPPH=100×(1−Abssample+DPPH−Abssample blank/AbsDPPH−AbsEtOH)
The IC50 value for each sample and for the ascorbic acid was obtained by linear regression.

collagenase = assay: Collagenase inhibition assay; assay type: biochemical
Description: An adaptation of the method of Moore and Stein [40] with modifications by Mandl et al. was used to determine anticollagenase activity. To 2 mL test tubes was added: 25 μL of collagenase solution (0.8 U/mL), 25 μL TES buffer (50 mM) with 0.36 mM calcium chloride (pH 7.4) and 50 μL of test sample or the reference compound EDTA (with concentrations ranging between 9.4 and 150 μM). The tubes were incubated in a water bath at 37 °C for 20 min. Thereafter, 50 μL FALGPA (1 mM) solution was added to the tubes and incubated further for 60 min at 37 °C. To all tubes, 200 μL of a solution containing equal volumes of a 1.6 mg/mLTin chloride (II) solution in 200 mM citrate buffer (pH 5) and 50 mg/mL ninhydrin solution in DMSO was added. All tubes were placed in a water bath (100 °C) for 5 min and left to cool to room temperature before adding 200 μL of 50% isopropanol to each tube. Contents in the tubes were then transferred to respective wells in 96-well plates.

[2] = UV/Vis absorption spectra; assay type: physicochemical; conditions: UVB range 280–320 nm
Description: as §1

Stability in pH buffers = assay type: physicochemical; conditions: pH buffers 2-8, 21 days, room temperature, 200 µM
Description: All the solutions were prepared following Portuguese Pharmacopeia 9.0 specifications (F.P. (VIII) 2008). A solution at 10 mM in DMSO of each compound was prepared. One hundred microliters of antioxidant solution were diluted to 5 mL of the different buffered pH solutions, prepared in triplicate. Their absorbance measured by UV/Vis spectrophotometry in the wavelength range between 200 and 500 nm at time intervals of 0, 1, and 2 h and 1, 8, 15, and 21 d at room temperature. Each pH buffer solution was used as a compensation solution.

[3] = Metal-chelating effect by UV/Vis, FeCl3; assay type: physicochemical; conditions: methanolic solution
Description: as §1

hyaluronidase = system: hyaluronidase
Description: The methods described by Ndlovu et al. and Zhou et al. were applied for the hyaluronidase inhibition assay. Into 2 mL test tubes was placed: 50 μL of calcium chloride (12.5 mM), 50 μL of test samples or sodium aurothiomalate diluted in 0.1 M acetate buffer; pH 3.5 (with concentrations ranging between 9.4 and 150 μM), and 25 μL hyaluronidase (0.5 mg/mL). The tubes were incubated in a water bath (37 °C; 20 min) after which 50 μL of the substrate hyaluronic acid (0.25 mg/mL in 0.1 M acetate buffer; pH 3.5) was added and the tubes incubated for further 40 min. Twenty-five microliters of KBO2 • 4 H2O (0.8 M) was added to all tubes which were placed in a water bath (100 °C) for 3 min, left to cool to room temperature, and 800 μL of DMAB (4 g DMAB in 40 mL acetic acid and 5 mL 10 N HCl) was added. The tubes were then incubated for 20 min and the contents transferred to respective wells in a 96-well plate. Absorbance was detected at 585 nm in a Bio-Rad Model 680 Microplate Reader (Bio-Rad Laboratories, Inc., Hercules, CA, USA). Percentage of hyaluronidase inhibition was calculated as:(3) % hyaluronidase inhibition =Abscontrol−Abssample/Abscontrol×100 where Abscontrol is the absorbance of buffer + hyaluronidase; Abssample is the absorbance of buffer + hyaluronidase + sample/standard.

HaCaT cells = assay: Phototoxicity evaluation, HaCaT NRU assay; assay type: cell-based, human
Description: The HaCaT cells were maintained at 37 °C in a humidified atmosphere of 95% air and 5% CO2 in the incubator in dulbecco’s modified eagle’s medium (DMEM) with 10% fetal bovine serum (FBS) and 1% antibiotics. Using an inverted microscope, cell confluence was observed and if the cells reached 70–80% confluence, subculture was done to prevent cell death. For this purpose, the culture medium was aspirated and the cells were washed with dulbecco’s phosphate buffered saline (DPBS), 2 mL of trypsin-EDTA were added and incubated for 5–8 min at 37 °C in a 5% CO2 atmosphere. After cell detaching, medium was added in order to block the trypsin action and cell suspension was centrifuged at 416 g for 5 min. The supernatant was discarded, the pellet suspended in culture medium, and cells were counted. For cell counting: 50 μL of cell suspension were added to 50 μL of Trypan Blue vital dye […], resuspended, placed in a Neubauer chamber (Hirschmann, Germany) and the viable cells were counted. For cell freezing, DMSO (5% v/v) was used as a cryopreservative to prevent the formation of crystals during the storage phase.
HaCaT cells were seeded onto 96-well tissue culture plates (Orange Scientific, Braine-l’Alleud, Belgium) at a 2 × 10^4 cells/well density and incubated at 37 °C in a 5% CO2 atmosphere for 24 h. […] In this last step, the absorbance was measured at 540 nm. […]

HaCaT cell = system: HaCaT cell; set-up: method as in doi:10.1016/j.arabjc.2017.01.006, PMID 31167479; conditions: cited from earlier work
[4] = Solubility in ethanol 70%; assay type: physicochemical

Compound | change of UV/Vis spectrum on sequential additions of CuCl2 [1] | IC50 (DPPH reduction assay) [µM] | Collagenase % Inhibition (150 µM) (collagenase) | capacity to absorb UV radiation [2] | pH stability (Stability in pH buffers) | change of UV/Vis spectrum on sequential additions of FeCl3 [3] | Hyaluronidase % Inhibition (150 μM) (hyaluronidase) | cytotoxicity to HaCaT cells (HaCaT cells; 12.5-200 µM, with and without UVA irradiation, NRU) | phototoxicity (HaCaT cells; up to 200 µM, HaCaT NRU assay) | decrease in HaCaT cell viability in the neutral red assay (HaCaT cell) [%] | cytotoxic effect (HaCaT cell; up to 50 µM, MTT, neutral red, Alamar Blue, Trypan Blue assays) | solubility [4] | maximum reduction activity (DPPH reduction assay; DPPH, IC50 not determinable, probably due to solubility issues)
Cc1cc(O)c(O)c2oc3ccccc3c(=O)c12 [Compound 2, 3,4-dihydroxy-1-methyl-9H-xanthen-9-one] | no effect was observed | 31.2 ± 4.8 | 26.83 ± 1.45 ^b % | high absorbance in the UVB range | a degradation of the compound for the range of pH tested overtime is observed | bathochromic shifts were observed | n.a. (Not active (0% inhibition)) |  |  |  |  |  | 
O=c1c2ccccc2oc2ccc(O)c(O)c12 [Compound 1, 1,2-dihydroxy-9H-xanthen-9-one] | bathochromic shifts | 28.4 ± 0.2 | 35.77 ± 1.82 ^a % | high absorbance in the UVB range | more stable in the pH range that is closest to the pH of the skin | bathochromic shifts | n.a. (Not active (0% inhibition)) | not cytotoxic | nonphototoxic | 83 | did not promote a significant cytotoxic effect |  | 
O=C1O[C@H]([C@@H](O)CO)C(O)=C1O [Ascorbic Acid, Ascorbic acid, reference compound] |  | 40 ± 0.8 |  |  |  |  |  |  |  |  |  |  | 
Cc1cc(O)c(O)c2oc3cc(O)ccc3c(=O)c12 [Compound 3, 3,4,6-trihydroxy-1-methyl-9H-xanthen-9-one] | no effect was observed | 47.3 ± 0.4 |  | high absorbance in the UVB range |  | bathochromic shifts were observed | n.a. (Not active (0% inhibition)) |  |  |  |  |  | 
COc1cc(O)c2c(=O)c3ccccc3oc2c1O [Compound 4, 1,4-dihydroxy-3-methoxy-9H-xanthen-9-one] |  |  |  |  |  |  |  |  |  |  |  | low solubility | lower than 50%
